These results are taken from US20050176760A1, “N-'4-(2-imino-pyrrolidin-1-yl)phenyl!-acetamide and corresponding piperidine derivatives as factor xa inhibitors for the treatment of thrombo-embolic diseases” (Merck Patent GmbH, priority 2002, published 2005).

One assay has as its target FXa (Homo sapiens, UniProt P00742). Briefly: Factor Xa inhibition (FXa-IC50). In kind it is biochemical. To be noted: Table 1, pharmacological data, 'Affinity to receptors'. An excerpt:
The inhibition of factor Xa by the compounds according to the invention and the measurement of the anticoagulant and antithrombotic activity can be determined by conventional in-vitro or in-vivo methods. A suitable method is described, for example, by J. Hauptmann et al. in Thrombosis and Haemostasis 1990, 63, 220-223.
The inhibition of factor Xa can be measured, for example by the method of T. Hara et al. in Thromb. Haemostas. 1994, 71, 314-319.

A further assay addresses TF/FVIIa (Homo sapiens, UniProt P08709). As to the kind of experiment: TF/factor VIIa inhibition (TF/FVIIa-IC50). In kind it is biochemical. To be noted: Table 1, pharmacological data, 'Affinity to receptors'. An excerpt: The inhibition of factor Vila by the compounds according to the invention and the measurement of the anticoagulant and antithrombotic activity can be determined by conventional in-vitro or in-vivo methods. A conventional method for the measurement of the inhibition of factor VIIa is described, for example, by H. F. Ronning et al. in Thrombosis Research 1996, 84, 73-81.

Sequence of TF/FVIIa (P08709 213-466 limits assumed): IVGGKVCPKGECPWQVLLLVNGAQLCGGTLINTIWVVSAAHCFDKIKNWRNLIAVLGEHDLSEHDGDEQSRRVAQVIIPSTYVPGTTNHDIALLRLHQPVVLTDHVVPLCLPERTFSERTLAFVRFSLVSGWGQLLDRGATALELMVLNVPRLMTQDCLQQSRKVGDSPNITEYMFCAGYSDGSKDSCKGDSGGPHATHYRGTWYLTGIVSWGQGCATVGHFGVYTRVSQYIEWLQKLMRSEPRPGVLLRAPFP
Sequence of TF/FVIIa (P08709 61-212 limits assumed): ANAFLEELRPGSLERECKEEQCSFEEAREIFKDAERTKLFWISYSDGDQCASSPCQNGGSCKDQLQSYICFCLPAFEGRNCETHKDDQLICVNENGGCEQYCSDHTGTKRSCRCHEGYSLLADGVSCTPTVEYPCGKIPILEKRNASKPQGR
Sequence of TF/FVIIa (P13726 33-295 partner): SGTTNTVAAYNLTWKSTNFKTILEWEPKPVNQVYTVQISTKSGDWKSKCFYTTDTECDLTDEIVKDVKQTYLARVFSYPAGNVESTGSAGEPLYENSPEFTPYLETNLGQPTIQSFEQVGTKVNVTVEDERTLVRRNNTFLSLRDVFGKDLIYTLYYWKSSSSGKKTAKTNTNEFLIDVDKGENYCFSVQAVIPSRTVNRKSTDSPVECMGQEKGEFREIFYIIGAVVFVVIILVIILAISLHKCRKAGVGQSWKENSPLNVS
Sequence of FXa (P00742 235-488 limits assumed): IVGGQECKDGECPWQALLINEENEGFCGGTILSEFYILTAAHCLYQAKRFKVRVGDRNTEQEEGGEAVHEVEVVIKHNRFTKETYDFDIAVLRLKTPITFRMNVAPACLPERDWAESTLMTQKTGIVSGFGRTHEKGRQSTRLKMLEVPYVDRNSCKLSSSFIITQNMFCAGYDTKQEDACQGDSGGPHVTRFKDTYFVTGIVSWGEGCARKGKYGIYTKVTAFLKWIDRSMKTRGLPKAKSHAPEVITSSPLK
Sequence of FXa (P00742 41-179 limits assumed): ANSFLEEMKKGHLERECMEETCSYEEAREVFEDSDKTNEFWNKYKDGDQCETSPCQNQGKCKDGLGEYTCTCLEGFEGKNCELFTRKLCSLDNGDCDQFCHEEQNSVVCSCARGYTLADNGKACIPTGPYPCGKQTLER

Turning to `NCc1cccc(NC(C(=O)Nc2ccc(N3CCCC3=NO)c(Cl)c2)c2ccccc2)c1` (racemic) [AA, (R, S)-2-(3-aminomethylphenylamino)-N-[3-chloro-4-(2-hydroxyiminopyrrolidin-1-yl)phenyl]-2-phenylacetamide], the IC50 (commonly the concentration that inhibits the measured activity by half) against FXa was determined as 220 nM; against TF/FVIIa, 290 nM.
For `N=C1CCCN1c1ccc(NC(=O)C(Nc2cccc(CN)c2)c2ccccc2)cc1Cl` (racemic) [AB, (R, S)-2-(3-aminomethylphenylamino)-N-[3-chloro-4-(2-iminopyrrolidin-1-yl)phenyl]-2-phenylacetamide], the IC50 is 58 nM at FXa and 99 nM on TF/FVIIa.
As to `CON=C1CCCCN1c1ccc(NC(=O)[C@H](CC(C)C)Oc2ccc3ccnc(N)c3c2)cc1` (single isomer, unassigned) [BA], the results for the IC50 on FXa and against TF/FVIIa were 680 nM and 490 nM, respectively.
For the molecule `CC(C)C[C@H](Oc1ccc2ccnc(N)c2c1)C(=O)Nc1ccc(N2CCCCC2=N)cc1` [BB, (S)-2-(1-aminoisoquinolin-7-yloxy)-N-[4-(2-iminopiperidin-1-yl)phenyl]-4-methylvaleramide], the figures for the half-inhibitory concentration (IC50) against FXa and against TF/FVIIa were 2700 nM and 2000 nM, respectively.
As to `Cc1cc(NC(=O)C(Nc2cccc(CN)c2)c2ccccc2Cl)ccc1N1CCCC1=NCCN(C)C` (stereo not shown) [DA, 2-(3-aminomethylphenylamino)-N-[3-methyl-4-(2-(2-dimethylaminoethylimino)pyrrolidin-1-yl)phenyl]-2-(2-chloro)phenyl-acetamide], the concentration for half-maximal inhibition (IC50) against FXa was 66 nM; against TF/FVIIa it was 130 nM.
